System: HepG2 cells
Assay: GdTex / LuTex cell association study in HepG2 cells
Type: cell-based
Details: 50 μM, 4 hours
Procedure: The absorption of GdTex and LuTex, using different sources of the respective texaphyrin, in HepG2 cells was determined, by comparing absorption for GdTex and LuTex in the cell line in medium alone, in medium containing ascorbic acid, and using GdTex and LuTex that had been premixed with ascorbate for a period of time before exposure to the cell line.
The HepG2 tumor cell line, a hepatocellular carcinoma, was obtained from the American Type Culture Collection (ATCC), Manassas, Va. (Catalog # HB-8065). The HepG2 cells were maintained in Eagle's Minimal Essential medium with Earl's BSS and 2 mM L-glutamine (EMEM) that is modified by ATCC to contain 1.0 mM sodium pyruvate, 0.1 mM nonessential amino acids, and 1.5 g/L sodium bicarbonate (ATCC, Cat. # 30-2003) and supplemented with 10% fetal bovine serum (FBS) FBS (Hyclone, Logan, Utah, Lot # AHF8559) and 100U penicillin/100 ug/ml streptomycin (Sigma, St. Louis, Mo.). Cells are fed 1 to 2 times weekly and passed at 3,000,000 cells per 75 cm tissue culture flask (Costar). Cells are passed using 0.25% trypsin, 0.02% EDTA solution (50/50 PBS/trypsin (Sigma)). Cells used were at the 96th passage at the time of use.
HepG2 Cells were plated at a density of 500,000 cells per dish in 100 mm tissue culture dishes containing 10 mL of RPMI media (Gibco, Rockville, Md.) supplemented with 10% fetal bovine serum (Lot# AJC9908), and 100 U/mL penicillin/100 ug/mL streptomycin (Lot # 50K2308, Sigma, St. Louis, Mo.). Cells were plated out 1 to 2 days prior to treating with motexafin gadolinium.
The day prior to treating the dishes with GdTex (9-19-00), an “aged” solution was prepared containing 50 μM GdTex, 100 μM ascorbate, and Catalase (at a concentration 1:1000 of the stock solution concentration provided by the vendor). This solution was incubated at 37° C. 5% CO2 for approximately 24 hours prior to addition to the appropriate test dishes.
On the day of treatment, test solutions were prepared as shown in the Table I below in pre-incubated medium. […]

[1] = freshly prepared solutions made in the presence of ascorbate (100 μM)

`CC(=O)[O-].CC(=O)[O-].CCc1c(CC)c2cc3nc(cnc4cc(OCCOCCOCCOC)c(OCCOCCOCCOC)cc4ncc4nc(cc1[n-]2)C(CCCO)=C4C)C(C)=C3CCCO.O.[Gd+3]` [GdTex, motexafin gadolinium] was tested, and the “association with HepG2 cells” value [1] was “comparable levels of association” and the “association with HepG2 cells” value (in the absence of ascorbate) was “smaller than corresponding LuTex cell association”.
In the case of `CC(=O)[O-].CC(=O)[O-].CCc1c(CC)c2cc3nc(cnc4cc(OCCOCCOCCOC)c(OCCOCCOCCOC)cc4ncc4nc(cc1[n-]2)C(CCCO)=C4C)C(C)=C3CCCO.O.[Lu+3]` [LuTex, motexafin lutetium], the “association with HepG2 cells” value [1] is reported as “comparable levels of association”.
